Patent publication US20080274522A1, “METHOD FOR THE PRODUCTION OF 2-BUTANONE” (priority 2007, published 2008)
Like-named read-outs stand apart in the source and are kept apart here.

Columns and labels:
[1] = test system: E. coli strain MG1655; settings: stationary phase
Experimental: For the stationary phase studies, E. coli strain MG1655 (ATCC # 700926) was grown overnight in LB medium (Teknova, Half Moon Bay, Calif.) with shaking at 250 rpm at 42° C., […] 28° C. […] To these were added 10 μL of the overnight cultures and the tubes were immediately placed in shaking incubators at 42° C. or 28° C. or left on ice for 30 min. […] Then, 5 μL of the undiluted treated cultures were spotted on LB agar plates. Subsequent 10-fold serial dilutions of 10^−3, 10^−4, 10^−5 and 10^−6 of the exposed cultures were done by serial pipetting of 20 μL, starting with the 10^−2 dilution cultures, into 180 μL of LB medium in the microplate, using a multi-channel pipette. Prior to each transfer, the cultures were mixed by pipetting up and down six times. Each dilution (5 μL) was spotted onto an LB plate using a multi-channel pipette and allowed to soak into the plate. The plates were inverted and incubated overnight at 37° C. […] Survival of 0% was recorded when no colonies in the spots of the undiluted or any of the serial dilutions were observed.

[2] = test system: E. coli strain MG1655; settings: log-phase
Experimental: A similar study was done with log-phase cultures of E. coli grown in a defined medium. E. coli strain MG1655 was allowed to grow overnight in MOPS 0.2% glucose medium (Teknova, Half Moon Bay, Calif.) at 42° C. or 28° C. The following day, the cultures were diluted into fresh medium and allowed to grow at the same temperature until in the log phase of growth. […] To these were added 10 μL of the log phase cultures and the tubes were immediately placed in shaking incubators at 42° C. or 28° C. or left on ice for 30 min. […] Then 5 μL of the undiluted treated cultures were spotted on LB agar plates. Subsequent 10-fold serial dilutions of 10^−3, 10^−4, 10^−5 and 10^−6 of the exposed cultures were done by serial pipetting of 20 μL, starting with the 10^−2 dilution cultures, into 180 μL of LB medium in the microplate, using a multi-channel pipette. Prior to each transfer, the cultures were mixed by pipetting up and down six times. Each dilution (5 μL) was spotted onto an LB plate using a multi-channel pipette and allowed to soak into the plate. The plates were inverted and incubated overnight at 37° C. […] Survival of 0% was recorded when no colonies in the spots of the undiluted or any of the serial dilutions were observed.

[3] = 1-butanol 1.0 % (w/v), grown at 28° C.
[4] = 1-butanol 1.0 % (w/v), grown at 29° C.
[5] = 1-butanol 1.0 % (w/v), grown at 42° C.
[6] = 1-butanol 1.5 % (w/v), grown at 28° C.
[7] = 1-butanol 1.5 % (w/v), grown at 29° C.
[8] = 1-butanol 1.5 % (w/v), grown at 42° C.
[9] = 1-butanol 2.0 % (w/v), grown at 28° C.
[10] = 1-butanol 2.0 % (w/v), grown at 29° C.
[11] = 1-butanol 2.0 % (w/v), grown at 42° C.
[12] = 1-butanol 3.0 % (w/v), grown at 28° C.
[13] = 1-butanol 3.0 % (w/v), grown at 29° C.
[14] = 1-butanol 3.0 % (w/v), grown at 42° C.
[15] = 1-butanol 4.0 % (w/v), grown at 28° C.
[16] = 1-butanol 4.0 % (w/v), grown at 29° C.
[17] = 1-butanol 4.0 % (w/v), grown at 42° C.
[18] = 1-butanol 5.0 % (w/v), grown at 29° C.
[19] = 1-butanol 5.0 % (w/v), grown at 42° C.
[20] = 1-butanol 6.0 % (w/v), grown at 29° C.
[21] = 1-butanol 6.0 % (w/v), grown at 42° C.
[22] = 1-butanol […] (w/v), grown at 29° C.
[23] = 1-butanol […] (w/v), grown at 42° C.

1-butanol
% survival after 30 min exposure at 28° C. [1, 3]: 100%
% survival after 30 min exposure at 0° C. [1, 4]: 100%
% survival after 30 min exposure at 42° C. [1, 4]: 100%
% survival after 30 min exposure at 0° C. [1, 5]: 100%
% survival after 30 min exposure at 28° C. [1, 5]: 100%
% survival after 30 min exposure at 42° C. [1, 5]: 100%
% survival after 30 min exposure at 28° C. [1, 6]: 100%
% survival after 30 min exposure at 0° C. [1, 7]: 100%
% survival after 30 min exposure at 42° C. [1, 7]: 0.1%
% survival after 30 min exposure at 0° C. [1, 8]: 100%
% survival after 30 min exposure at 28° C. [1, 8]: 100%
% survival after 30 min exposure at 42° C. [1, 8]: 0.1%
% survival after 30 min exposure at 28° C. [1, 9]: 100%
% survival after 30 min exposure at 0° C. [1, 10]: 100%
% survival after 30 min exposure at 42° C. [1, 10]: 0.1%
% survival after 30 min exposure at 0° C. [1, 11]: 100%
% survival after 30 min exposure at 28° C. [1, 11]: 100%
% survival after 30 min exposure at 42° C. [1, 11]: 0%
% survival after 30 min exposure at 28° C. [1, 12]: 100%
% survival after 30 min exposure at 0° C. [1, 13]: 100%
% survival after 30 min exposure at 42° C. [1, 13]: 0%
% survival after 30 min exposure at 0° C. [1, 14]: 100%
% survival after 30 min exposure at 28° C. [1, 14]: 100%
% survival after 30 min exposure at 42° C. [1, 14]: 0%
% survival after 30 min exposure at 28° C. [1, 15]: 0.0003%
% survival after 30 min exposure at 0° C. [1, 16]: 100%
% survival after 30 min exposure at 42° C. [1, 16]: 0%
% survival after 30 min exposure at 0° C. [1, 17]: 100%
% survival after 30 min exposure at 28° C. [1, 17]: 0.0004%
% survival after 30 min exposure at 42° C. [1, 17]: 0%
% survival after 30 min exposure at 0° C. [1, 18]: 1%
% survival after 30 min exposure at 0° C. [1, 19]: 1%
% survival after 30 min exposure at 0° C. [1, 20]: 0.001%
% survival after 30 min exposure at 0° C. [1, 21]: 0%
% survival after 30 min exposure at 0° C. ([1]; 1-butanol 7.0 % (w/v), grown at 29° C.): 0%
% survival after 30 min exposure at 0° C. ([1]; 1-butanol 7.0 % (w/v), grown at 42° C.): 0%
% survival after 30 min exposure at 0° C. [1, 22]: 100%
% survival after 30 min exposure at 42° C. [1, 22]: 0%
% survival after 30 min exposure at 0° C. [1, 23]: 100%
% survival after 30 min exposure at 42° C. [1, 23]: 0%
% survival after 30 min exposure at 42° C. [2, 3]: 100%
% survival after 30 min exposure at 42° C. [2, 5]: 100%
% survival after 30 min exposure at 28° C. [2, 6]: 100%
% survival after 30 min exposure at 42° C. [2, 6]: 0%
% survival after 30 min exposure at 28° C. [2, 8]: 100%
% survival after 30 min exposure at 42° C. [2, 8]: 0%
% survival after 30 min exposure at 28° C. [2, 9]: 100%
% survival after 30 min exposure at 42° C. [2, 9]: 0%
% survival after 30 min exposure at 28° C. [2, 11]: 100%
% survival after 30 min exposure at 42° C. [2, 11]: 0%
% survival after 30 min exposure at 28° C. [2, 12]: 0%
% survival after 30 min exposure at 42° C. [2, 12]: 0%
% survival after 30 min exposure at 0° C. [2, 13]: 100%
% survival after 30 min exposure at 0° C. [2, 14]: 100%
% survival after 30 min exposure at 28° C. [2, 14]: 0%
% survival after 30 min exposure at 42° C. [2, 14]: 0%
% survival after 30 min exposure at 28° C. [2, 15]: 0%
% survival after 30 min exposure at 42° C. [2, 15]: 0%
% survival after 30 min exposure at 0° C. [2, 16]: 100%
% survival after 30 min exposure at 0° C. [2, 17]: 100%
% survival after 30 min exposure at 28° C. [2, 17]: 0.001%
% survival after 30 min exposure at 42° C. [2, 17]: 0%
% survival after 30 min exposure at 0° C. [2, 18]: 50%
% survival after 30 min exposure at 0° C. [2, 19]: 10%
% survival after 30 min exposure at 0° C. [2, 20]: 1%
% survival after 30 min exposure at 0° C. [2, 21]: 1%
% survival after 30 min exposure at 42° C. ([2]; 1-butanol […] (w/v), grown at 28° C.): 0%
% survival after 30 min exposure at 0° C. [2, 22]: 100%
% survival after 30 min exposure at 0° C. [2, 23]: 100%
% survival after 30 min exposure at 42° C. [2, 23]: 0%
